Experiment [1] has as its target T1, hM1 mAChR (Homo sapiens, UniProt P11229).
T1 construct: expressed in transfected cells
T1 sequence (P11229 1-460): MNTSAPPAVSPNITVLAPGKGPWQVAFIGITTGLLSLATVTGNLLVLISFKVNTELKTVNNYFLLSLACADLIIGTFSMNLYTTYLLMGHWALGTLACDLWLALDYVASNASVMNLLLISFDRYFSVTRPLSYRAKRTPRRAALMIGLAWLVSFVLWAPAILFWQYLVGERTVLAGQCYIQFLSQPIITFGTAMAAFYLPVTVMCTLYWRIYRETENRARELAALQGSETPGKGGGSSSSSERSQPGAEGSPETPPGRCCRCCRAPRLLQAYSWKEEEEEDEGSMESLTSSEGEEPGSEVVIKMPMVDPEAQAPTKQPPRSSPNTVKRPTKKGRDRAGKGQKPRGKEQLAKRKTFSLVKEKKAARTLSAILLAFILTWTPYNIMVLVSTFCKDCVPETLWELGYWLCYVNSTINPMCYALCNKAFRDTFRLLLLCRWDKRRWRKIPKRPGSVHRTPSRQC
As to the kind of experiment: IP1 accumulation assay (ACh concentration-response curves in absence or presence of modulator). The note with it: for activation at 1 µM / ΔpEC50 [1 μM]: change in ACh pEC50 in presence of M1 PAM compared to control curve: 1 μM modulator; for activation at 1 µM / activation at 10 µM / ΔpEC50 [1 μM]: change in ACh pEC50 in presence of M1 PAM compared to control curve / ΔpEC50 [10 μM]: change in ACh pEC50 in presence of M1 PAM compared to control curve: FlpIn CHO hM1 cells, mean ± SEM, 3 experiments; for activation at 1 µM: read-out: Δbaseline [1 μM]: change in basal response in presence of M1 PAM compared to control curve; for activation at 10 µM / ΔpEC50 [10 μM]: change in ACh pEC50 in presence of M1 PAM compared to control curve: 10 μM modulator; for activation at 10 µM: read-out: Δbaseline [10 μM]: change in basal response in presence of M1 PAM compared to control curve; for τB (intrinsic efficacy of the modulator) / log τB (logarithm of intrinsic efficacy of the modulator) / log αβ (logarithm of functional cooperativity between ACh and modulator) / αβ (functional cooperativity with ACh): IP1 accumulation; for τB (intrinsic efficacy of the modulator) / αβ (functional cooperativity with ACh): antilog, in parentheses; for log τB (logarithm of intrinsic efficacy of the modulator) / log αβ (logarithm of functional cooperativity between ACh and modulator): operational model; for log αβ (logarithm of functional cooperativity between ACh and modulator): pKB constrained to binding value. Format: cell-based. The protocol: Functional activity of the synthesized analogues as racemic mixtures was investigated in IP1 accumulation assays at the M1 mAChR, as described previously.[13–14] ACh concentration-response curves were generated in the absence or presence of a 1 and 10 μM concentration of each modulator. The change in baseline activity (Δbaseline) is an approximate measure of direct allosteric agonism (τB), whereas the pEC50 shift (ΔpEC50) is an approximate measure of functional cooperativity (αβ) of each modulator with ACh in the investigated signalling pathway. We aimed to identify modulators with various degrees of allosteric agonism and modulatory effects on ACh response, as these could generate distinct in vivo outcomes for applications in different conditions in the CNS or gastrointestinal (GI) tract.[[10g,h,j]]
(§1) The compounds were then fully characterised in two functional assays (Figure 2C and D); the Gq-coupled IP1 accumulation assay (Figure S2), which was used for the initial screening of the compounds, and a β-arrestin 2 recruitment assay (Figure S3). The operational efficacy (τB) values for the modulators and their functional cooperativity estimates with ACh (logαβACh) at both signalling pathways were estimated by applying an operational model of allosterism and agonism to the data [Eq. (3)],[16] and are listed in Table 5.
FlpIn CHO cells stably expressing the hM1 mAChR were seeded at 25000 per well of 96-well transparent cell culture plates and grown overnight. […] Cells were then stimulated with increasing concentration of ACh in the absence or presence of increasing concentrations of each modulator for 1 h at 37°C. […] Seven μL of cell lysates were transferred into wells of 384-well Proxiplates (Perki-nElmer Life Sciences), and IP1 levels were measured using the IP-One assay kit (Cisbio, Codolet, France). […] The signal was expressed as the HTRF ratio, interpolated from the standard curve, and normalized to the maximum response to ACh.
Changes in both baseline and pEC50 were quantified by subtracting the estimates at each M1 PAM concentrations with the control values. Propagation of the error on baseline and potency values were determined as follows [Eq. (1)]: σΔ=σPAM2+σcont.2 where σΔ is the standard error of the mean (SEM) for the change in value, and σPAM and σcont. are the SEM from the three-parameter logistic equation analysis in presence or absence of M1 PAM, respectively.
(§2) Functional interaction studies between ACh and allosteric modulators in IP1 and β-arrestin 2 recruitment assays were analysed according to a three-parameter logistic equation or the following operational model of allosterism and agonism [Eq. (3)].[16] E=Basal+(Em−Basal)([A](KB+αβ[B])+τB[B]EC50)^n/EC50n(KB+[B])^n+([A](KB+αβ[B])+τB[B]EC50)^n where Em is the maximal possible system response, and Basal is the response in the absence of agonist. [A] and [B] are concentrations of orthosteric and allosteric ligands, respectively. KB is the equilibrium dissociation constant of allosteric ligand, and EC50 is the concentration of orthosteric agonist required to achieve half maximal response. α and β represent the magnitude of the allosteric effects on orthosteric ligand affinity and efficacy, respectively; τB is the efficacy of allosteric ligand, and n is the slope factor of the transducer function that links occupancy to response.

Experiment [2] concerns the target T1, hM1 mAChR. The experiment is described as follows: Whole-cell [3H]NMS equilibrium competition radioligand binding. The note with it: [3H]NMS binding; for α (binding cooperativity with ACh): antilog. The protocol:
To determine the affinity (pKB) of the allosteric modulators for the allosteric site, and their binding cooperativity with ACh (log αACh) at the M1 mAChR, whole cell equilibrium competition binding studies were performed, using [^3H]NMS to label the orthosteric site.
FlpIn Chinese hamster ovary (CHO) cells stably expressing the hM1 mAChR were grown in Dulbecco’s modified Eagle’s medium (DMEM) (Invitrogen, Carlsbad, CA) supplemented with 5% foetal bovine serum (FBS) (Thermo-Trace, Melbourne, Australia) and 300 μg/mL G418 (Invitrogen, Carlsbad, CA). The cells were plated at 50,000 cells per well of 96-well white clear bottom plates (Greiner Bio-one, Kremsmünster, Austria), and were grown overnight. The following day, cells were washed twice with Phosphate Buffered Saline (PBS), and incubated with increasing concentrations of ACh (Sigma) in the absence or presence of increasing concentrations of each modulator and 0.2 nM [^3H]NMS (PerkinElmer Life Sciences) in binding buffer (20 mM HEPES, 100 mM NaCl, 10 mM MgCl2, pH 7.4) for 5 h at room temperature. Nonspecific binding was determined using atropine at the final concentration of 10 μM. The assays were terminated by rapid removal of the unbound radioligand followed by two washes with 100 μL/well ice-cold 0.9% NaCl buffer. Radioactivity was determined by addition of 100 μL/well Ultima gold (PerkinElmer Life Sciences) and counting in a MicroBeta plate reader (PerkinElmer Life Sciences).
Binding interaction studies with allosteric ligands were fitted to the following allosteric ternary complex model [Eq. (2)][15] Y=Bmax|A|/[Λ]+[KAKB/α^′[B]+KB][1+[I]/K1+[B]/KB+α[I][B]/KIKB] where Bmax is the total number of receptors, [A], [B] and [I] denote the concentrations of radioligand, allosteric modulator, and orthosteric ligand, respectively; KA, KB and KI are their respective equilibrium dissociation constants. α’ and α are the affinity cooperativity factors between the allosteric ligand and radioligand or the allosteric modulator and ACh, respectively. Values of α or α’ > 1 denote positive cooperativity, values < 1 but > 0 denote negative cooperativity, and a value of 1 indicates neutral coopera-tivity.

The next experiment addresses T2, M1 mAChR (Homo sapiens, UniProt P11229).
T2 construct: expressed in transfected cells; host or cells: parental FlpIn CHO cells (transient, PEI)
T2 sequence (P11229 1-460): T1 sequence (P11229 1-460)
The experiment is described as follows: β-arrestin 2 recruitment assay (BRET). It counts as cell-based. The note with it: for αβ (functional cooperativity with ACh) / τB (intrinsic efficacy of the modulator): antilog, in parentheses; for log τB (logarithm of intrinsic efficacy of the modulator) / log αβ (logarithm of functional cooperativity between ACh and modulator): operational model; for log αβ (logarithm of functional cooperativity between ACh and modulator): pKB constrained to binding value.
Description: as §1
Parental FlpIn CHO cells were plated at 30000 cells/well of 96-well white Culture plates (Perkin Elmer Life Sciences) and transiently transfected with 10 ng/well of M1 Renilla luciferase (Rluc)-8 and 40 ng/well of YFP-β-arrestin 2 using linear polyethyleneimine (PEI/DNA ratio 6:1) diluted in 150 mM NaCl. DNA:PEI complexes were formed by 15 min incubation at room temperature then added to the cells and incubated at 37°C for 24 h prior to use. Cells were then washed and equilibrated in Hanks’ balanced salt solution for 1 h at 37°C. Coelenterazine h at a final concentration of 5 μM was added to each well, followed by addition of increasing concentrations of ACh in the absence or presence of increasing concentrations of each modulator. Lumines-cence and fluorescence signals were measured 5 min after agonist stimulation using the LUMIstar Omega plate reader (BMG LabTech, Offenburg, Germany). […] Data were then normalized to the maximum response to ACh.
as §2
In general terms: Activated receptors often draw arrestin, which recruitment assays turn into a signal.

[3] abbreviates: allosteric ternary complex model, mean ± SEM, read-out: pKB (negative logarithm of the allosteric modulator equilibrium dissociation constant) (converted).

The structures appear in SMILES notation. Where two headings read alike, the source gives them in different places.

As for `Cn1cc(-c2ccc(COc3ncccc3-c3cc(=O)n(C4CCCCC4O)cn3)cc2)cn1` (centres unmarked) [Compound 26a, 3-(2-Hydroxycyclohexyl)-6-(2-((4-(1-methyl-1H-pyrazol-4-yl)benzyl)oxy)pyridin-3-yl)pyrimidin-4(3H)-one], on hM1 mAChR [1], the activation at 1 µM is 100%, the activation at 10 µM was determined as 100%, the “τB (intrinsic efficacy of the modulator)” value worked out at 3 and the “log τB (logarithm of intrinsic efficacy of the modulator)” value (shortened to “log τB”) is recorded as 0.54±0.02. Besides, on hM1 mAChR [1], the “log αβ (logarithm of functional cooperativity between ACh and modulator)” value (from here on “log αβ”) is recorded as 1.89±0.07. Further, the Kb on hM1 mAChR [2] (setting [3]) is 3.31 µM. The Kb at hM1 mAChR [2] (antilog of pKB, in parentheses, read-out: KB (converted)) was 3 µM. Further, the “α (binding cooperativity with ACh)” value on hM1 mAChR [2] (in parentheses) is reported as 120. Also, at hM1 mAChR [2] (mean ± SEM), the “log αACh (logarithm of binding cooperativity between ACh and modulator)” value (“log αACh” below) is 2.08±0.13. Further, on M1 mAChR, the “αβ (functional cooperativity with ACh)” value is listed as 95; the “τB (intrinsic efficacy of the modulator)” value stood at 2; the “log τB” value came to 0.28±0.04; the “log αβ” value is 1.98±0.10.
As for `Cn1cc(-c2ccc(COc3ccccc3-c3ccn(C4CCCCC4O)c(=O)c3)cc2)cn1` (centres unmarked) [Compound 1, 1-(2-Hydroxycyclohexyl)-4-(2-((4-(1-methyl-1H-pyrazol-4-yl)-benzyl)oxy)phenyl)pyridin-2(1H)-one], on hM1 mAChR [1], the “ΔpEC50 [1 μM]: change in ACh pEC50 in presence of M1 PAM compared to control curve” value is reported as 0.88±0.09, the activation at 1 µM is 15.8 ± 2.3%, the “ΔpEC50 [10 μM]: change in ACh pEC50 in presence of M1 PAM compared to control curve” value came out at 1.31±0.15 and the activation at 10 µM was determined as 58.3 ± 2.3%. Besides, on hM1 mAChR [1], the “αβ (functional cooperativity with ACh)” value was found to be 100; the “τB (intrinsic efficacy of the modulator)” value amounted to 4; the “log τB” value turned out to be 0.60±0.03; the “log αβ” value is listed as 2.00±0.10. Further, the Kb on hM1 mAChR [2] (setting [3]) is 11 µM. Further, the “α (binding cooperativity with ACh)” value at hM1 mAChR [2] (in parentheses) amounted to 112. Besides, the “log αACh” value at hM1 mAChR [2] (mean ± SEM) is 2.05±0.17. On M1 mAChR, the “αβ (functional cooperativity with ACh)” value came to 65; the “τB (intrinsic efficacy of the modulator)” value turned out to be 1; the “log τB” value is listed as “–0.01±0.05”; the “log αβ” value turned out to be 1.81±0.09.
As for `O=c1cc(-c2ccccc2OCc2ccc(-n3cccn3)nc2)ncn1C1CCCCC1O` (centres unmarked) [Compound 27b, 6-(2-((6-(1H-Pyrazol-1-yl)pyridin-3-yl)methoxy)phenyl)-3-(2-hydroxycyclohexyl)pyrimidin-4(3H)-one], on hM1 mAChR [1], the “ΔpEC50 [1 μM]: change in ACh pEC50 in presence of M1 PAM compared to control curve” value is reported as 0.96±0.18, the activation at 1 µM is 38.5 ± 3.8%, the “ΔpEC50 [10 μM]: change in ACh pEC50 in presence of M1 PAM compared to control curve” value came out at 1.50±0.32 and the activation at 10 µM was found to be 78.6 ± 2.8%. In addition, at hM1 mAChR [1], the “αβ (functional cooperativity with ACh)” value was determined as 112; the “τB (intrinsic efficacy of the modulator)” value worked out at 3; the “log τB” value is given as 0.54±0.04; the “log αβ” value worked out at 2.05±0.12. Further, the Kb at hM1 mAChR [2] (setting [3]) was 15.8 µM. For the same compound, on hM1 mAChR [2] (in parentheses), the “α (binding cooperativity with ACh)” value came to 151. At hM1 mAChR [2] (mean ± SEM), the “log αACh” value is 2.18±0.19. In addition, at M1 mAChR, the “αβ (functional cooperativity with ACh)” value is given as 56; the “τB (intrinsic efficacy of the modulator)” value turned out to be 0.4; the “log τB” value is on record as “–0.36±0.12”; the “log αβ” value was determined as 1.75±0.11.
On to `COc1ccc(Cn2cc(C(=O)O)c(=O)c3ccccc32)cc1` [BQCA, reference compound], for which, at hM1 mAChR [1], the “αβ (functional cooperativity with ACh)” value is reported as 389; the “τB (intrinsic efficacy of the modulator)” value is recorded as 6; the “log τB” value is 0.76±0.03; the “log αβ” value worked out at 2.59±0.07. In addition, the “α (binding cooperativity with ACh)” value on hM1 mAChR [2] (in parentheses) worked out at 245. The “log αACh” value at hM1 mAChR [2] (mean ± SEM) turned out to be 2.39±0.22. On M1 mAChR, the “αβ (functional cooperativity with ACh)” value was found to be 89; the “τB (intrinsic efficacy of the modulator)” value is on record as 1; the “log τB” value was “–0.03±0.10”; the “log αβ” value was 1.95±0.19.
